Measured values from patent US9499466B2, “Diene-based carboxylate anion and salt thereof, and polymerizable or curable composition thereof” (NIPPON SHOKUBAI CO., LTD., priority 2010, dated 2016).

Experiments:
[1] = Solubility test (dissolution method); settings: for Solubility (dissolution method) Water: mixed at 1%, 3%, 5%, 10%, 20% or more
Description: The solubility evaluation by the dissolution method requires complicated operations and a large amount of test sample. Therefore, this test is not suitable for screening. However, the solubility of each compound can be more accurately evaluated.

[2] = Adhesion of cured material to PET film (cross-cut method, JIS K 5600-5-6); settings: UV-cured film on surface-untreated PET film, cross-cut 10×10
Method: Each compound shown in Table 11 was formed into a UV-cured film on a PET film in the same manner as in the pencil hardness test, except that the PET film used as a substrate was a surface-untreated polyethylene terephthalate (PET) film (Lumirror L-50T60, produced by Toray Industries, Inc.).
The adhesion of the UV-cured film to the PET film was evaluated based on JIS K 5600-5-6 (cross-cut method). The number of divided segments was 10×10 segments=100 segments. The adhesion was evaluated by the number of the segments which remain without peeling or damage in 100 segments.

[3] = Solubility test (film-forming method); settings: solvent dropped on film on glass plate; Water
Method: Each compound was applied on a glass plate and the glass plate was leaned against the wall. Each solvent shown in Table 5 was dropped (5 to 6 drops) on the glass plate with a pasteur pipette. The glass plate was visually observed after the dropped solvent was dried, the surface was optionally rubbed with a spatula, and the solubility (film-forming method) was evaluated according to the criteria shown in Table 4.

C=CC(=O)OCC(C)(C)COC(=O)C=C [NPGDA, reference compound]
Solubility (dissolution method) Acetone [1]: ◯◯ (Become uniform and transparent at a compound concentration of 20% or more) | Solubility (dissolution method) Acetonitrile [1]: ◯◯ (Become uniform and transparent at a compound concentration of 20% or more) | Solubility (dissolution method) Ethyl acetate [1]: ◯◯ (Become uniform and transparent at a compound concentration of 20% or more) | Solubility (dissolution method) Methanol [1]: ◯◯ (Become uniform and transparent at a compound concentration of 20% or more) | Solubility (dissolution method) THF [1]: ◯◯ (Become uniform and transparent at a compound concentration of 20% or more) | Solubility (dissolution method) Toluene [1]: ◯◯ (Become uniform and transparent at a compound concentration of 20% or more) | Solubility (dissolution method) Water [1]: X (Not become uniform and transparent even at a compound concentration of 1%) | Adhesion (segments remaining without peeling or damage in 100 segments) [2]: 49/100

C=CC(=O)OCC(CC)(COC(=O)C=C)COC(=O)C=C [TMPTA, reference compound]
Solubility (dissolution method) Acetone [1]: ◯◯ (Become uniform and transparent at a compound concentration of 20% or more) | Solubility (dissolution method) Acetonitrile [1]: ◯◯ (Become uniform and transparent at a compound concentration of 20% or more) | Solubility (dissolution method) Ethyl acetate [1]: ◯◯ (Become uniform and transparent at a compound concentration of 20% or more) | Solubility (dissolution method) Methanol [1]: ◯◯ (Become uniform and transparent at a compound concentration of 20% or more) | Solubility (dissolution method) THF [1]: ◯◯ (Become uniform and transparent at a compound concentration of 20% or more) | Solubility (dissolution method) Toluene [1]: ◯◯ (Become uniform and transparent at a compound concentration of 20% or more) | Solubility (dissolution method) Water [1]: X (Not become uniform and transparent even at a compound concentration of 1%) | Adhesion (segments remaining without peeling or damage in 100 segments) [2]: 71/100

C=CCOCC(=C)C(=O)[O-].C=CCOCC(=C)C(=O)[O-].[Zn+2] [Zn(AMA)2]
Solubility (film-forming method) Water [3]: X-Δ | Adhesion (segments remaining without peeling or damage in 100 segments) [2]: 100/100

C=CCOCC(=C)C(=O)[O-].C=CCOCC(=C)C(=O)[O-].[O]=[Zr+2] [ZrO(AMA)2]
Solubility (dissolution method) Acetone [1]: ◯◯ (Become uniform and transparent at a compound concentration of 20% or more) | Solubility (dissolution method) Acetonitrile [1]: ◯◯ (Become uniform and transparent at a compound concentration of 20% or more) | Solubility (dissolution method) Ethyl acetate [1]: ◯◯ (Become uniform and transparent at a compound concentration of 20% or more) | Solubility (dissolution method) Methanol [1]: ◯◯ (Become uniform and transparent at a compound concentration of 20% or more) | Solubility (dissolution method) THF [1]: ◯◯ (Become uniform and transparent at a compound concentration of 20% or more) | Solubility (dissolution method) Toluene [1]: ◯◯ (Become uniform and transparent at a compound concentration of 20% or more) | Solubility (dissolution method) Water [1]: X (Not become uniform and transparent even at a compound concentration of 1%) | Adhesion (segments remaining without peeling or damage in 100 segments) [2]: 100/100
